Source: ChEMBL document CHEMBL4613232, “Novel 3,3-disubstituted oxindole derivatives. Synthesis and evaluation of the anti-proliferative activity” (Bioorg Med Chem Lett, 2020)

Tests used:
PBMC = experiment: Cytotoxicity against human PBMC assessed as reduction in cell viability; assay type: cell-based
A-375 = experiment: Antiproliferative activity against human A375 cells; assay type: functional, cell-based
MCF7 = experiment: Antiproliferative activity against human MCF7 cells; assay type: functional, cell-based
SW-620 = experiment: Antiproliferative activity against human SW620 cells; assay type: functional, cell-based
PC-3 = experiment: Antiproliferative activity against human PC3 cells; assay type: functional, cell-based
MIA PaCa-2 = experiment: Antiproliferative activity against human MIAPaCa2 cells; assay type: functional, cell-based

| SMILES | IC50 (A-375) | IC50 (MCF7) | IC50 (SW-620) | IC50 (PC-3) | IC50 (MIA PaCa-2) | IC50 (PBMC) | Activity (MIA PaCa-2) | Activity (SW-620) |
| --- | --- | --- | --- | --- | --- | --- | --- | --- |
| CCCC1(NC(=O)OC)C(=O)Nc2ccccc21 (centres undefined) | > 50 µM | > 50 µM | > 50 µM | – | – | > 100 µM | – | – |
| CCOP(=O)(NC1(Cc2ccccc2)C(=O)Nc2ccc(Br)cc21)OCC (centres undefined) | > 50 µM | > 50 µM | 27.7 µM | > 50 µM | 30.2 µM | 51.8 µM | Dose-dependent effect | Dose-dependent effect |
| CCOC(=O)N1C(=O)C(Cc2ccccc2)(NC=O)c2cc(Br)ccc21 (centres undefined) | > 50 µM | > 50 µM | > 50 µM | 32.5 µM | > 50 µM | > 100 µM | – | – |
| CC(=O)N1C(=O)C(Cc2ccccc2)(NC=O)c2ccccc21 (centres undefined) | > 50 µM | 14.4 µM | > 50 µM | 18.2 µM | 47 µM | 45.5 µM | – | – |
| CCOC(=O)CC1(NC=O)C(=O)N(C(C)=O)c2ccccc21 (centres undefined) | > 50 µM | 30.4 µM | > 50 µM | 17 µM | > 50 µM | > 100 µM | – | – |
| NC1(Cc2ccccc2)C(=O)Nc2ccccc21 (centres undefined) | > 50 µM | > 50 µM | 37.1 µM | > 50 µM | 43.1 µM | > 100 µM | – | – |

Now from value to molecule, other results behind:

| IC50 (A-375) | IC50 (MCF7) | IC50 (SW-620) | IC50 (PC-3) | IC50 (MIA PaCa-2) | SMILES | IC50 (PBMC) | Activity (MIA PaCa-2) | Activity (SW-620) |
| --- | --- | --- | --- | --- | --- | --- | --- | --- |
| > 50 µM | > 50 µM | > 50 µM | > 50 µM | > 50 µM | NC1(Cc2ccccc2)C(=O)Nc2ccc(Br)cc21 (centres undefined) | > 100 µM | – | – |
| > 50 µM | > 50 µM | > 50 µM | > 50 µM | > 50 µM | O=C(NC1(Cc2ccccc2)C(=O)Nc2ccc(Br)cc21)c1ccccc1 (centres undefined) | > 100 µM | – | – |
| 6.41 µM | 17.7 µM | 9.81 µM | 8.95 µM | 7.46 µM | O=CNC1(Cc2ccccc2)C(=O)Nc2ccc(Br)cc21 (centres undefined) | 75.3 µM | – | – |
